PubChem BioAssay AID651973 (The Scripps Research Institute Molecular Screening Center, 2013)
pIC50: −log10 of the molar value. The source made the active and inactive calls. No rule for the calls is given here.

Test system: Cell-based VP16 transactivation luciferase reporter, luminescence
Experiment: compounds lowering VP16-driven luciferase output – cell-based, luminescence, counter-screen for LRH-1 inverse agonist project, dose response (AID 651973)

SMILES | IC50 | pIC50
O=C(Nc1ccc(C(=O)N2CCOCC2)cc1)c1cccc([N+](=O)[O-])c1 | > 35.9 µM (inactive) | 
COC(=O)c1ccc(COc2ccc(/C=N/NC(N)=S)cc2)o1 | > 35.9 µM (inactive) | 
CC1=CC(O)C(O)C2(C)C1CC1OC(=O)CC3C(C)C(O)C(=O)C2C13CO (stereo not given) | > 35.9 µM (inactive) | 
COc1ccc(CCNC(=O)COC(=O)c2cccn2C)cc1 | > 35.9 µM (inactive) | 
O=C1CCCN2N=C(SCC(=O)Nc3ccc(Br)cc3)SC2=N1 | > 35.9 µM (inactive) | 
Cc1ccc(NC(=O)CN2C(=O)NC(C)(CC(C)C)C2=O)c(Br)c1 (stereo not given) | > 35.9 µM (inactive) | 
CCOC(=O)c1cc2sccc2n1CC(=O)Nc1ccc2c(c1)OCCO2 | > 35.9 µM (inactive) | 
CC(O)(c1cccnc1)c1nc(-c2cccc(C#N)c2)cs1 (stereo not given) | > 35.9 µM (inactive) | 
CC(Oc1ccc(S(=O)(=O)N2CCCC2)cc1[N+](=O)[O-])C(=O)NC(C)c1ccccc1 (stereo not given) | 20.1 µM (inactive) | 
Cc1cccc(NC(=O)COC(=O)Cc2cccs2)c1C | > 35.9 µM (inactive) | 
Nc1ccc(C(=O)NN2C(=O)[C@H](Cl)C2c2ccc(Cl)cc2)cc1 (stereo not given in full) |  | 5.01
CCCN(CC(=O)Nc1ccc(C(C)=O)cc1)CC(=O)Nc1ccccc1C | > 35.9 µM (inactive) | 
CCOc1ccc(OCCC(=O)OCC(=O)Nc2ccc3c(c2)OCCO3)cc1 | > 35.9 µM (inactive) | 
CCOc1ccc(OCCN2C(=O)NC(Cc3c[nH]c4ccccc34)C2=O)cc1 (stereo not given) | > 35.9 µM (inactive) | 
CCC(C)NC(=O)c1ccc2c(c1)N(Cc1ccccc1)C(=O)CS2 (stereo not given) | > 35.9 µM (inactive) | 
CCC(=O)Nc1nnc(SCC(=O)NCCc2ccc(OC)c(OC)c2)s1 | > 35.9 µM (inactive) | 
CCOc1cc(/C=N/n2nnnc2N)ccc1OCc1c(C)no[n+]1[O-] | > 35.9 µM (inactive) | 
CC(=O)Nc1cc(-c2ccc(S(C)(=O)=O)cc2)cn2c(-c3ccc(F)cc3)cnc12 | > 35.9 µM (inactive) | 
CCOc1ccc(NC(=O)COC(=O)CC2CCCCC2)cc1 | > 35.9 µM (inactive) | 
CCc1cc(=O)oc2c(C)c(OCC(=O)NC3CC(C)(C)NC(C)(C)C3)ccc12 | > 35.9 µM (inactive) | 
COc1cc(OC)cc(C(=O)N[C@H](C(=O)OCC(=O)Nc2ccc3c(c2)OCO3)C(C)C)c1 | > 35.9 µM (inactive) | 
Cc1cc(Br)ccc1NC(=O)CSc1nnc(CN2CCOCC2)n1C | > 35.9 µM (inactive) | 
COc1cccc(NC(=O)c2oc3ccccc3c2NC(=O)C2CC2)c1 | > 35.9 µM (inactive) | 
O=C(NCC1CCCO1)c1ccc(NC(=O)c2cccc([N+](=O)[O-])c2)cc1 (stereo not given) | > 35.9 µM (inactive) | 

SMILES | IC50 | pIC50
Cc1ccc(NC(=O)CSc2nc3[nH]c(=O)cc(O)c3s2)c(Br)c1 | > 35.9 µM (inactive) | 
COc1ccc(NS(=O)(=O)c2ccc(OCC(=O)N3CCN(C)CC3)cc2)cc1Cl | > 35.9 µM (inactive) | 
COc1ccc(NC(=O)COC(=O)Cc2c[nH]c3ccccc23)cc1Cl | > 35.9 µM (inactive) | 
COc1cc(/C=N/n2nnnc2N)ccc1OCc1c(C)no[n+]1[O-] | > 35.9 µM (inactive) | 
CCCNC(=O)c1sc2c(c1C(=O)Nc1ccccn1)CCCC2 | > 35.9 µM (inactive) | 
COc1ccccc1Oc1nnnn1-c1ccc(C(N)=O)cc1 | > 35.9 µM (inactive) | 
CCn1cc(Br)c(C(=O)Nc2ccccc2C(=O)OC)n1 | > 35.9 µM (inactive) | 
COc1ccc(NC(=O)CSc2nc3nc(C)cc(C)c3c(=O)[nH]2)cc1 | > 35.9 µM (inactive) | 
O=C(COc1ccc2c3c(c(=O)oc2c1)CCC3)NCc1ccncc1 | > 35.9 µM (inactive) | 
COc1ccc(CCn2c(C)cc(C(=O)COC(=O)c3ccc(O)cc3O)c2C)cc1 | > 35.9 µM (inactive) | 
O=C(Nc1ccc(Cc2ccncc2)cc1)c1ccc([N+](=O)[O-])o1 | > 35.9 µM (inactive) | 
COc1ccc(CCNC(=O)CN2C(=O)NC3(CCCCC3)C2=O)cc1 | > 35.9 µM (inactive) | 
CC(=O)Nc1cc(-c2cccnc2)cn2c(-c3ccc(F)cc3)cnc12 | > 35.9 µM (inactive) | 
COc1cc(C(=O)Nc2ccccc2N2CCN(S(C)(=O)=O)CC2)cc(OC)c1OC | > 35.9 µM (inactive) | 
Cc1cccc(NC(=O)COC(=O)CN2C(=O)c3ccccc3C2=O)c1C | > 35.9 µM (inactive) | 
NS(=O)(=O)c1ccc(CCNC(=O)COc2ccc3c4c(c(=O)oc3c2)CCC4)cc1 | > 35.9 µM (inactive) | 
Cc1cc(=O)oc2c(C)c(OCC(=O)NC3CC(C)(C)NC(C)(C)C3)ccc12 | > 35.9 µM (inactive) | 
CCCc1cc(=O)oc2c(C)c(OCC(=O)NCCN3CCOCC3)ccc12 | > 35.9 µM (inactive) | 
CC(=O)Nc1ccc(NC(=O)CSc2ccc(-c3ccco3)nn2)cc1 | > 35.9 µM (inactive) | 
Cc1c(NC(=S)NC(=O)c2ccc(Cl)cc2)c(=O)n(-c2ccccc2)n1C | > 35.9 µM (inactive) | 
Cc1ccn2c(=O)nc(SCC(=O)Nc3ccc4c(c3)OCCO4)nc2c1 | > 35.9 µM (inactive) | 
O=[N+]([O-])c1cc(F)c(N2CCCCCC2)cc1N1CCNCC1 | 19.3 µM (inactive) | 
Cc1cc(Br)ccc1NC(=O)CN1C(=O)CCC1=O | > 35.9 µM (inactive) | 
C[C@H](CO)N1C[C@H](C)[C@H](CN(C)Cc2ccncc2)Oc2cc(-c3ccccc3F)ccc2S1(=O)=O | 14.6 µM (inactive) | 

SMILES | IC50 | pIC50
CCc1cc(=O)oc2c(C)c(OCC(=O)NCCCN3CCOCC3)ccc12 | > 35.9 µM (inactive) | 
CCCc1cc(=O)oc2c(C)c(OCC(=O)NCCCn3ccnc3)ccc12 | > 35.9 µM (inactive) | 
CC(=O)Nc1ccc(NC(=O)CSc2ccc(-c3ccc(-n4ccnc4)cc3)nn2)cc1 | > 35.9 µM (inactive) | 
Cc1ccccc1OCC(=O)N/N=C/c1ccc([N+](=O)[O-])o1 | 29.8 µM (inactive) | 
COc1ccc(-n2c(N)c(C(=O)NCc3cccnc3)sc2=S)cc1 | > 35.9 µM (inactive) | 
Cc1cccc(CN2C(=O)CSc3ccc(C(=O)NC4CC4)cc32)c1 | 26.3 µM (inactive) | 
CCCOc1ccc(NC(=O)CC2C(=O)N(C)C(=S)N2Cc2ccc3c(c2)OCO3)cc1 (stereo not given) |  | 5.06
CC1SC(C)C(=O)N(CC(=O)Nc2ccc3c(c2)OCO3)C1=O (stereo not given) | > 35.9 µM (inactive) | 
COc1ccc(CCNC(=O)CN2C(=O)NC3(CCCCC3C)C2=O)cc1 (stereo not given) | > 35.9 µM (inactive) | 
O=C(NC1CCCC(C(F)(F)F)C1)c1ccc([N+](=O)[O-])o1 (stereo not given) | > 35.9 µM (inactive) | 
O=C(COc1ccc(S(=O)(=O)N2CCCC2)cc1Cl)Nc1ccc2c(c1)OCO2 | > 35.9 µM (inactive) | 
COc1ccc(Nc2nc(NCCN3CCOCC3)nc(Nc3ccc(OC)cc3)n2)cc1 | > 35.9 µM (inactive) | 
O=C(CCl)NCCN1C(=O)S/C(=C\c2cccnc2)C1=O | 26.8 µM (inactive) | 
Cc1ccc(NC(=O)CSc2sc3c(O)cc(=O)[nH]c3c2C#N)c(F)c1 | > 35.9 µM (inactive) | 
CC1CC(C)CN(c2cc(N(C)CCO)c([N+](=O)[O-])c3nonc23)C1 (stereo not given) | > 35.9 µM (inactive) | 
CC(=O)c1ccc(OC(C)C(=O)OCC(=O)NCCc2ccccc2)cc1 (stereo not given) | > 35.9 µM (inactive) | 
CCCc1cc(=O)oc2cc(OCC(=O)NCc3ccccn3)ccc12 | > 35.9 µM (inactive) | 
COc1cc([N+](=O)[O-])ccc1NC(=O)Cn1ccsc1=N | > 35.9 µM (inactive) | 
Cc1no[n+]([O-])c1COc1ccc(/C=N/n2nnnc2N)cc1 | > 35.9 µM (inactive) | 
CC(C)Oc1cccc(-c2cc(C(=O)NN3CCOCC3)c3ccccc3n2)c1 | > 35.9 µM (inactive) | 
N=c1sccn1CC(=O)Nc1ccc(S(N)(=O)=O)cc1 | > 35.9 µM (inactive) | 
CCOc1ccc(NC(=O)COC(=O)c2ccc3c(c2)OCCO3)cc1 | > 35.9 µM (inactive) | 
COc1cc(C(=O)Nc2ccccc2C2COC(=O)C2=N)cc(OC)c1OC (stereo not given) | > 35.9 µM (inactive) | 
C/C(=N\Nc1cc(C(F)(F)F)ccc1Cl)c1ccncc1 | > 35.9 µM (inactive) | 

SMILES | IC50 | pIC50
COC(=O)c1ccc(NC(=O)CSc2nncn2-c2cccnc2)cc1 | > 35.9 µM (inactive) | 
COc1ccc(CCNC(=O)CSc2nn3c(=O)c(C)nnc3s2)cc1OC | > 35.9 µM (inactive) | 
COCCn1c(C)cc(/C=C(\C#N)C(=O)OCC(=O)Nc2ccc(S(N)(=O)=O)cc2)c1C | > 35.9 µM (inactive) | 
Cc1cccc(NC(=O)CSc2nc3[nH]ncc3c(=O)[nH]2)c1C | > 35.9 µM (inactive) | 
O=C(CSc1n[nH]c(-c2ccccc2)n1)Nc1ccc(F)cc1F | > 35.9 µM (inactive) | 
CCc1c(C)nc(SCC(=O)Nc2ccc3c(c2)OCCO3)[nH]c1=O | > 35.9 µM (inactive) | 
COc1ccccc1NC(=O)CN1CCN(CC(=O)Nc2ccc3c(c2)OCCO3)CC1 | > 35.9 µM (inactive) | 
COc1ccc(OCCNC(=O)C2(C)CCN2Cc2ccc3ccccc3c2)cc1 (stereo not given) | 23.8 µM (inactive) | 
Cc1cc(C)c2nc(NC(=O)c3ccc([N+](=O)[O-])o3)sc2c1 | > 35.9 µM (inactive) | 
O=[N+]([O-])c1ccc(N2CCN(S(=O)(=O)c3ccccc3)CC2)cc1NCc1cccnc1 | > 35.9 µM (inactive) | 
COc1ccccc1NC(=O)c1ccc(NC(=O)CSc2nnnn2C)cc1 | > 35.9 µM (inactive) | 
CCCN(CC(=O)Nc1ccc(C(N)=O)cc1)CC(=O)Nc1ccccc1C | > 35.9 µM (inactive) | 
COc1ccc(NC(=O)CSc2sc3c(O)cc(=O)[nH]c3c2C#N)c(OC)c1 | > 35.9 µM (inactive) | 
COc1ccc(OC)c(NC(=O)c2ccccc2NC(=O)c2ccco2)c1 | > 35.9 µM (inactive) | 
O=C(CSc1nncc(=O)[nH]1)Nc1cccc([N+](=O)[O-])c1 | 34.4 µM (inactive) | 
CC(O)(c1cccc(F)c1)c1nc(-c2ccc(S(C)(=O)=O)cc2)cs1 (stereo not given) | 16.2 µM (inactive) | 
Cc1nn(Cc2ccccc2)c(C)c1C(=O)OCC(=O)Nc1ccccc1SCC#N | > 35.9 µM (inactive) | 
COc1cc(NC(=O)Cn2ccsc2=N)c(C)cc1[N+](=O)[O-] | > 35.9 µM (inactive) | 
CC(O)(c1ccc(F)c(F)c1)c1nc(-c2ccc(S(C)(=O)=O)cc2)cs1 (stereo not given) | 34.7 µM (inactive) | 
Cc1ccccc1Nc1nc(-c2cccnc2)nc2ccccc12 | 34.6 µM (inactive) | 
CCc1cc(=O)oc2cc(C)cc(OCC(=O)NC3CC3)c12 | > 35.9 µM (inactive) | 
COc1ccc(NC(=O)CSc2nnc3ccc(-c4cccnc4)nn23)cc1OC | > 35.9 µM (inactive) | 
O=C(CN1C(=O)CCC1=O)Nc1ccc(Br)cc1 | > 35.9 µM (inactive) | 
